The results in this text go back to patent US20070197562A1, “Remedies for prostatic hypertrophy” (Yokohama TLO Company, Ltd., priority 2004, published 2007).

One experiment concerns PrSC cells. Briefly: Proliferation of PrSC cells stimulated with angiotensin II, TGFβ or EGF (cell count, Examples 1-3). Type of experiment: cell-based, human. The following applies: 5 days. The protocol: A Cell Line Derived from Normal Human Prostatic stromal cells, i.e., PrSC cells, was purchased from Sanko Junyaku Co. Ltd. (Normal Human Prostate Stromal Cells, catalogue number CC-2508), and maintained by subculturing them in a phenol red-free RPMI medium under conditions of 5% CO2 and 37° C.
The PrSC cells (10^4 cells) were placed in a 12-well dish, and cultured in a phenol red-free medium containing 0.1% (W/V) BSA under conditions of 5% CO2 and 37° C. for several days. Then, 1 μM or 10 μM of angiotensin II was added. To some wells, CV (10 μM; hereinafter CV was used at this concentration unless otherwise noted) was added as an AIIR blocker 4 hours before adding angiotensin II. Each group contained four wells (n=4). After culturing the cells at 5% CO2 and 37° C. for 5 days, the number of all cells in each of the wells was counted.
The effect of an AIIR blocker was examined in the same manner as Example 1, except for that 10 ng/mL of TGFβ was used in place of angiotensin II.
The effect of an AIIR blocker was examined in the same manner as Example 1, except for that 10 ng/mL of EGF was used in place of angiotensin II.

Experiment [1] concerns mixed tumor grafts of PC-3 cells and PrSC cells. As to the kind of experiment: In vivo effect on mixed tumor grafts of PC-3 cells and PrSC cells transplanted on mice. The protocol: The in vivo effect of the AIIR blocker was examined using the PC-3 human prostatic cancer cells with less expression of AT1 receptors (obtained from American Type Culture Collection, Rockville, Md., USA), and PrSC cells. PC-3 cells (5×10^6 cells) or a mixture of PC-3 and PrSC cells (2.5×10^6 cells each; a total of 5×10^6 cells) were injected subcutaneously in the back of male nude mice of 4 weeks old for forming tumors. Tumors having a diameter of about 5 mm were formed after one week. The above-described mice were divided into three groups: CV (5 mg/kg/day) administered group, CV (10 mg/kg/day) administered group, and non-administered group (Control) (n=4 for each group). The administered groups were orally administered with a specified dose of CV dissolved in drinking water every day from the first to the fifth week after the tumorigenic injection. The size of the tumor (heterograft) on each mouse was measured every week, and the volume was calculated using the formula: major axis×minor axis×minor axis/2. The volume was expressed as relative ratio to the volume in the first week as being 1. The results are shown in FIGS. 8 (PC-3 cells were transplanted) and 9 (a mixture of PC-3 and PrSC cells was transplanted).

Experiment [2] has as its system MAPK phosphorylation in PC-3 cells. Briefly: MAPK phosphorylation in PC-3 cells cultured in PrSC conditioned media (Western blotting). Type of experiment: cell-based, human. Particulars: 10% FCS-CM from PrSC with AIIR blocker 10 μM, no angiotensin II; lanes 5 and 6 vs lane 4; 10 minutes. The protocol:
Stromal cells (PrSC) were cultured in a phenol red-free F12 medium containing 0.1% (W/V) BSA, to which angiotensin II (10 μM) was added alone or in combination with losartan (“Los”; 10 μM). The culture medium was collected 24 hours after the addition, and used as a conditioned medium (“0.1% BSA-CM”).
Stromal cells (PrSC) were cultured in a phenol red-free F12 medium containing 10% (V/V) FCS, to which CV (10 μM) or losartan (10 μM) was added. The culture medium was collected 24 hours after the addition, and used as a conditioned medium (“10% FCS-CM”) with no addition of angiotensin II. 10% FCS-CM with no additive was also prepared in the same manner.
3,000,000 PrSC cells were used for each of the above 10-1 and 10-2
PC3 cells (prostate cancer cells) were cultured for 24 hours in a phenol red-free F12 medium supplemented with 0.1% (W/V) BSA. Then the medium was replaced with one of the conditioned media prepared as described above, and the cells were collected 10 minutes later. Total cellular proteins were extracted as described below. Similar protocol was done in parallel for PC-3 cells without using any conditioned medium (“Control”).
The cells were washed twice with an ice-cold phosphate buffer (PBS), and lysed in 200 μL of an ice-cold cell lysis solution (lysis buffer; 20 mM of Tris (pH8.0), 137 mM of NaCl, 10% of glycerol, 0.1% of SDS, 0.5% of Nonidet P-40 (trade name), 100 mM of sodium fluoride, […] of sodium orthovanadate, 1 mM of EGTA, 2 mM of phenylmethylsulfonyl fluoride, […] of leupeptin, and […] of aprotinin). The mixture was centrifuged. Subsequently, the supernatant was collected.
The resulting protein sample was subjected to SDS-PAGE in the routine manner, and the MAPK phosphorylation was determined by Western blotting using an anti-phospho-MAP kinase antibody or an anti-MAP kinase antibody) (both were purchased from Cell Signaling Technology (Beverly, Mass.)) as the detecting antibody.
From the obtained results, the expression levels of pMAPK and MAPK bands were determined using NIH image software. On the basis of the results, the pMAPK/MAPK ratio in each lane was calculated, and then the ratio (“pMAPK ratio”) of the obtained value of each lane to that of the lane 1 (“Control”) was calculated by taking the value of Control as 1.

The subject of experiment [3] is MAPK phosphorylation in PrSC cells. As to the kind of experiment: MAPK phosphorylation in PrSC cells (Western blotting). Type of experiment: cell-based, human. The protocol:
Stromal cells (PrSC) were cultured for 24 hours in a phenol red-free F12 medium containing 0.1% (W/V) BSA, to which angiotensin II (10 μM) or TNFα (1 ng/mL) was added each alone or in combination with either CV (10 μM) or losartan (“Los”; 10 μM) by replacing the medium. The cells were collected 10 minutes after the addition, and the total cellular proteins were extracted in the same manner as described in Example 10. Similarly, the cells cultured with no additive and the cells added with either CV or Los alone were processed in parallel. 3,000,000 PrSC cells were used for each sample.
These samples were subjected to Western blotting in the same manner as described in Example 10.
On the technique in general: A western blot detects proteins with antibodies after separation by electrophoresis.

Consider `CCOc1nc2cccc(C(=O)OC(C)OC(=O)OC3CCCCC3)c2n1Cc1ccc(-c2ccccc2-c2nnn[nH]2)cc1` (stereo not shown) [CV, 1-(cyclohexyloxycarbonyloxy)ethyl 2-ethoxy-1-[[2′-(1H-tetrazole-5-yl)biphenyl-4-yl]methyl]-1H-benzimidazole-7-carboxylate], for which the “increase in the numbers of cells” value with PrSC cells (AII (1 μM)+CV 10 μM added 4 hours before, P<0.01 vs AII (1 μM)) is “suppressed to a level similar to that of the control group”; in the experiment with PrSC cells (AII (10 μM)+CV 10 μM added 4 hours before, P<0.01 vs AII (10 μM)) it was “suppressed to a level similar to that of the control group”. Besides, the “increase in the number of cells” value was “significantly suppressed (P<0.05) to the same level as that of the control group” with PrSC cells (EGF 10 ng/mL + CV 10 μM, P<0.05) and “significantly suppressed” with PrSC cells (TGFβ 10 ng/mL + CV 10 μM, P<0.05 vs TGFβ). The “proliferation (relative tumor volume) vs Control” value in experiment [1] (mixture of PC-3 and PrSC cells transplanted, CV 5 or 10 mg/kg/day orally in drinking water, first to fifth week, male nude mice) is given as “dose-dependently suppressed”. The “relative tumor volume, difference from Control” value in experiment [1] (mixture of PC-3 and PrSC cells, CV 10 mg/kg/day, fourth and fifth weeks (P<0.04 and P<0.03)) is listed as “significant differences”. The “MAPK phosphorylation in PC-3 cells” value in experiment [2] is reported as “suppressed”. Also, the “MAPK phosphorylation in PrSC cells” value in experiment [3] (AIIR blocker 10 μM added alone, lanes 8 and 9) was “not caused”; in experiment [3] (TNFα (1 ng/mL) in combination with AIIR blocker 10 μM, lanes 6 and 7, 10 minutes), “suppressed”; in experiment [3] (angiotensin II (10 μM) in combination with AIIR blocker 10 μM, lanes 3 and 4, 10 minutes), “suppressed”.
